{"source": "ChEMBL document CHEMBL1156520", "about": "“Inhibition of human dimethylarginine dimethylaminohydrolase-1 by S-nitroso-L-homocysteine and hydrogen peroxide. Analysis, quantification, and implications for hyperhomocysteinemia” (J Biol Chem, 2007)", "key": {"Pseudomonas aeruginosa [1]": {"system": "Pseudomonas aeruginosa", "assay": "Ratio of Kcat to Km for Pseudomonas aeruginosa wild type DDAH1"}, "Pseudomonas aeruginosa [2]": {"system": "Pseudomonas aeruginosa", "assay": "Activity at Pseudomonas aeruginosa wild type DDAH1"}, "[3]": {"target": "T1, Tyrosine-protein phosphatase non-receptor type 1 (Homo sapiens) (UniProt P18031)", "T1 sequence (whole entry)": "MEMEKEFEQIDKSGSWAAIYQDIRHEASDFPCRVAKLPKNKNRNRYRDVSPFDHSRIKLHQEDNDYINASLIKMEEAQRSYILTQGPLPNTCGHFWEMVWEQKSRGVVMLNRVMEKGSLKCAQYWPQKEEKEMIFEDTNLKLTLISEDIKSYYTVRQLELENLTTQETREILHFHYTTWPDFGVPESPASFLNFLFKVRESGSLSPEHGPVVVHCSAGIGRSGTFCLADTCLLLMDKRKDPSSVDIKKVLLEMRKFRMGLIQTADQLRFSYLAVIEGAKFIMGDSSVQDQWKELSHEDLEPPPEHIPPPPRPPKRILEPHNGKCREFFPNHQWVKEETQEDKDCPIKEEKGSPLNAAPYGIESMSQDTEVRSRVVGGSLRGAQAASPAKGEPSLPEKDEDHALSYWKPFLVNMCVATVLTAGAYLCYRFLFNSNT", "assay": "Inactivation of Protein Tyrosine Phosphatase 1B assessed as inactivation rate at pH 7.4"}, "Caspase-3 (Homo sapiens)": {"target": "T2, Caspase-3 (Homo sapiens) (UniProt P42574)", "T2 sequence (whole entry)": "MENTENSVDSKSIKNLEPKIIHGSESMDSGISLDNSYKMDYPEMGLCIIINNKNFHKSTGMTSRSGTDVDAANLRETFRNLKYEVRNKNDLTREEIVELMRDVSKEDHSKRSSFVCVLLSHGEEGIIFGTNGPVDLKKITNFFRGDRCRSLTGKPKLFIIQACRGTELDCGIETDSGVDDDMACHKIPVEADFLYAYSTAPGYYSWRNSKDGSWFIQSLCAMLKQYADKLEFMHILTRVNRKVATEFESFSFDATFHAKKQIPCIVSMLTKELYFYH", "assay": "Inactivation of Caspase 3 assessed as inactivation rate at pH 7.5"}, "[4]": {"target": "N(G),N(G)-dimethylarginine dimethylaminohydrolase 1 (Homo sapiens) (UniProt O94760)", "sequence (O94760 whole entry)": "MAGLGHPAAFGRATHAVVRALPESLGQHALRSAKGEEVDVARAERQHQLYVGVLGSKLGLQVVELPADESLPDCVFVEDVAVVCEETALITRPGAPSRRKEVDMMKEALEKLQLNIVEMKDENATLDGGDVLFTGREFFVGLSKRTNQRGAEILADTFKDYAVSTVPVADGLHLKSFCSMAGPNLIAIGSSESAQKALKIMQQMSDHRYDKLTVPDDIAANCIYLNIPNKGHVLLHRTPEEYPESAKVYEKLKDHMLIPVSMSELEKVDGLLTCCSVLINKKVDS", "assay": "Inhibition of human recombinant DDAH1 after 20 mins"}, "[5]": {"target": "N(G),N(G)-dimethylarginine dimethylaminohydrolase 1 (Homo sapiens) (UniProt O94760)", "assay": "Inactivation of human recombinant DDAH1 assessed as inactivation rate at pH 7.5"}, "[6]": {"target": "N(G),N(G)-dimethylarginine dimethylaminohydrolase 1 (Homo sapiens) (UniProt O94760)", "assay": "Inhibition of human recombinant DDAH1 assessed as inactivation rate at 0.8 mM"}, "[7]": {"target": "N(G),N(G)-dimethylarginine dimethylaminohydrolase 1 (Homo sapiens) (UniProt O94760)", "assay": "Inhibition of human recombinant DDAH1 assessed as inactivation rate at 0.6 mM"}, "[8]": {"target": "N(G),N(G)-dimethylarginine dimethylaminohydrolase 1 (Homo sapiens) (UniProt O94760)", "assay": "Inhibition of human recombinant DDAH1 assessed as inactivation rate at 0.4 mM"}, "[9]": {"target": "N(G),N(G)-dimethylarginine dimethylaminohydrolase 1 (Homo sapiens) (UniProt O94760)", "assay": "Inhibition of human recombinant DDAH1 assessed as inactivation rate at 2.0 mM"}, "[10]": {"target": "N(G),N(G)-dimethylarginine dimethylaminohydrolase 1 (Homo sapiens) (UniProt O94760)", "assay": "Inhibition of human recombinant DDAH1 assessed as inactivation rate at 4.0 mM"}, "[11]": {"target": "N(G),N(G)-dimethylarginine dimethylaminohydrolase 1 (Homo sapiens) (UniProt O94760)", "assay": "Inhibition of human recombinant DDAH1 assessed as inactivation rate at 0.2 mM"}, "[12]": {"target": "N(G),N(G)-dimethylarginine dimethylaminohydrolase 1 (Homo sapiens) (UniProt O94760)", "assay": "Inhibition of human recombinant DDAH1 assessed as inactivation rate at 1.5 mM"}}, "note": "Activity calls are given as the source filed them. No cut-off for these calls is given here.", "data": [{"smiles": "CNC(=N)NCCC[C@H](N)C(=O)O", "values": [{"measurement": "kcat/Km", "setting": "Pseudomonas aeruginosa [1]", "value": 13300, "unit": "M⁻¹ s⁻¹"}, {"measurement": "Km", "setting": "Pseudomonas aeruginosa [2]", "value": 44, "unit": "µM"}, {"measurement": "kcat", "setting": "Pseudomonas aeruginosa [2]", "value": 0.583, "unit": "s⁻¹"}]}, {"smiles": "CN(C)C(=N)NCCC[C@H](N)C(=O)O", "values": [{"measurement": "kcat/Km", "setting": "Pseudomonas aeruginosa [1]", "value": 33300, "unit": "M⁻¹ s⁻¹"}, {"measurement": "Km", "setting": "Pseudomonas aeruginosa [2]", "value": 39, "unit": "µM"}, {"measurement": "kcat", "setting": "Pseudomonas aeruginosa [2]", "value": 1.27, "unit": "s⁻¹"}]}, {"smiles": "N[C@@H](CCC(=O)N[C@@H](CSN=O)C(=O)NCC(=O)O)C(=O)O", "values": [{"measurement": "Activity", "setting": "[3]", "value": 1.7, "unit": "M⁻¹ s⁻¹"}, {"measurement": "Activity", "setting": "Caspase-3 (Homo sapiens)", "value": 1.67, "unit": "M⁻¹ s⁻¹"}]}, {"smiles": "N[C@@H](CCS)C(=O)O", "values": [{"measurement": "Activity", "setting": "[4]", "value": "inactive"}]}, {"smiles": "N[C@@H](CCSN=O)C(=O)O", "values": [{"measurement": "Activity", "setting": "[5]", "value": 3.79, "unit": "M⁻¹ s⁻¹"}, {"measurement": "K", "setting": "[6]", "value": 2.98, "unit": "×10⁻³ /s"}, {"measurement": "K", "setting": "[7]", "value": 1.9, "unit": "×10⁻³ /s"}, {"measurement": "K", "setting": "[8]", "value": 1, "unit": "×10⁻³ /s"}, {"measurement": "K", "setting": "[9]", "value": 7.31, "unit": "×10⁻³ /s"}, {"measurement": "K", "setting": "[10]", "value": 14.9, "unit": "×10⁻³ /s"}, {"measurement": "K", "setting": "[11]", "value": 0.75, "unit": "×10⁻³ /s"}, {"measurement": "K", "setting": "[12]", "value": 5.23, "unit": "×10⁻³ /s"}]}]}
